Experimental data from patent publication US8106092B2, “Treatment of solid cancers” (priority 2004, dated 2012).

Legend:
[1] = system: B16-OVA-specific CD8^+ T-cells; test: B16-OVA-specific CD8+ T-cell responses, ex vivo ELISPOT on d12; type: in vivo, C57BL/6 mice; settings: d12 splenocytes, responses to SVYDFFVWL, KVPRNQDWL and SIINFEKL
Protocol: FIGS. 13A to C are graphical representations showing synergistic effects between PEP005-mediated cure of primaries and DC therapy on the growth of secondary tumors and on CD8^+ T-cell induction. (A) On d−3 C57BL/6 mice where inoculated with 2×10^6 B16-OVA cells on the right flank (primary tumor) and 2×10^4 B16-OVA cells on the left flank (secondary tumor). On d0 and d1 the primary B16-OVA tumors, which has reach 30.4 mm^2+SD6 were cured with i.t. injections of 25 μg of PEP005 formulated in PEG400. On d4 and d11 mice received DC therapy using DC2.4 cells pulsed with SVYDFFVWL [SEQ ID NO:1], KVPRNQDWL [SEQ ID NO:4] and SIINFEKL [SEQ ID NO:2] peptides, and ovalbumin (n=12, PEP005+DC). […] Animal groups were established and treated as in (A) except that on d12 mice were sacrificed and splenocytes analyzed in an ex vivo ELISPOT assay for responses to SVYDFFVWL [SEQ ID NO:1], KVPRNQDWL [SEQ ID NO:4] and SIINFEKL [SEQ ID NO:2] […]
To determine whether the synergistic effect of PEP005 and DC therapies seen in […] correlated with anti-cancer CD8^+ T-cell induction, a group of animals were established and treated as described for FIG. 13A except the animals were killed on d12 and their splenocytes analyzed for B16-OVA-specific CD8^+ T-cells responses. […] In the absence of treatment no significant B16-OVA-specific CD8^+ T-cell responses were detected (FIG. 13C, Controls).

[2] = system: CT26 colon carcinoma cells; test: PEP005-mediated cure of primaries plus peptide vaccine, CT26 colon carcinoma model; type: in vivo, Balb/c mice; settings: Log rank p=0.011 (PEP005) and =0.013 (Vaccine)
Protocol: FIG. 14 is a graphical representation combining PEP005-mediated cure of primaries and cancer vaccination in the CT26 colon carcinoma model. (A) on d−3 […] mice were inoculated with 10^5 CT26 cells on the left flank (primary tumor) and 5×10^3 CT26 cells on the right flank (secondary tumor). On dO the primary CT26 tumors, which has reached 16.8+SD 3.2 mm^2 were cured with i.t. injections of 25 μg of PEP005 formulated in PEG400. On d3 and d10 mice received peptide vaccine containing the SPSYVYHQF [SEQ ID NO:5] epitope (n=9, PEP005+Vaccine). […] A third group was inoculated with secondary tumors only and received the vaccine (n=11, Vaccine), and the control group was given only secondary tumors and received no treatment (n=12, Controls). Animals were culled when the secondary tumors reached 100 mm^2.
CT26 colon carcinoma cells [CRL-2638] (Ali et al, 2002 supra) were grown s.c. in 6-10 week old female Balb/c mice.
The cancer vaccine comprised the gp70 A-1 peptide epitope SPSYVYHQF [SEQ ID NO:5] […]
To determine whether the effects seen in the B16 models could be repeated in a different tumor model and using a different cancer vaccine, four groups of Balb/c mice were established using the CT26 colon carcinoma model (Ali et al, J Immunol 168:3512-3519, 2002). […] The growth of secondary tumors was monitored as above.

Structure (SMILES): C/C=C(/C)C(=O)O[C@H]1C(C)=C[C@]23C(=O)[C@@H](C=C(CO)[C@@H](O)[C@]12O)[C@H]1[C@@H](C[C@H]3C)C1(C)C [PEP005, ingenol-3-angelate]
- B16-OVA-specific CD8+ T-cell responses [1]: about 120 spots/10^6 splenocytes
- growth of secondaries vs no treatment controls [2]: significantly reduced the growth of secondaries
